The source of these data is the Deep4Chem optical property database.

Each structure is given as a SMILES string.

This series in a line: solvent given as SMILES.

For `CC1=CC(C)=[N+]2C1=Cc1c3ccccc3c(C#Cc3cccs3)n1[B-]2(F)F`, the absorption maximum reads like this: (in CCCCCC) 621 nm; (in CCCCCCCCO) 625 nm; (in CCOC(C)=O) 620 nm; (in CN(C)C=O) 626 nm; (in ClCCl) 618 nm.
With `CC(C)(C)c1ccc(-c2nc3c4ccc(-c5ccccc5)cc4c4cc(-c5ccccc5)ccc4c3n2-c2ccc(C(C)(C)C)cc2)cc1`, the absorption maximum is given as 331 nm (in C1CCOC1); 333 nm (in C1COCCO1); 329 nm (in CC#N); 331 nm (in CCCCCC); 331 nm (in CCCCOCCCC); 332 nm (in CCN(CC)CC). Besides, the absorption maximum reads like this: (in CCOC(C)=O) 329 nm; (in CCOCC) 330 nm; (in CN(C)C=O) 331 nm; (in Cc1ccccc1) 333 nm; (in ClC=C(Cl)Cl) 332 nm; (in ClCCl) 330 nm.
Consider `CCC1=C(C2=C(C3=C(CC)S(=O)(=O)c4cc(-c5ccc(C(C)=O)s5)ccc43)C(F)(F)C(F)(F)C2(F)F)c2ccc(-c3ccc(C(C)=O)s3)cc2S1(=O)=O`, for which the absorption maximum (in C1COCCO1) turned out to be 363 nm.
The molecule `CCCC1(CCC)c2cc(-c3ccc(OC)cc3)ccc2-c2ccc(-c3ccc4c(c3)C(CCC)(CCC)c3cc(-c5ccc(OC)cc5)ccc3-4)cc21` registered an absorption maximum (in C1CCCCC1) of 350 nm.
`Cc1cc(C2=Cc3cccc[n+]3[B-](F)(F)O2)ccc1N(C)C` registered an absorption maximum (in ClC(Cl)Cl) of 400 nm.
In turn, `Cc1cccc2ccccc12` returned an absorption maximum (in C1CCCCC1) of 293.94 nm.
With `CCn1c2ccccc2c2cc(C#Cc3cc(C#Cc4ccc5c(c4)c4ccccc4n5CC)nc(C#N)n3)ccc21`, the absorption maximum stood at 410 nm (in C1CCOC1); 405 nm (in CCOC(C)=O); 411 nm (in CN(C)C=O); 410 nm (in Cc1ccccc1); 415 nm (in ClCCl).
On to `c1ccc(-c2nc(-c3ccc(N4c5ccccc5Sc5ccccc54)cc3)nn2-c2ccc(N3c4ccccc4Sc4ccccc43)cc2)nc1`, for which the absorption maximum (in ClCCl) is 377 nm.
As for `F[B-]1(F)n2cccc2C(c2ccccc2)=C2C=CC(c3cccc(OC4=[N+]5C(=C(c6ccccc6)c6cc(Br)c(-c7ccc[nH]7)n6[B-]5(F)F)C=C4Br)c3)=[N+]21`, the absorption maximum (in ClC(Cl)Cl) stood at 627 nm.
Regarding `COc1ccc(C(=O)/C=C/c2ccc(N(C)C)cc2)cc1OC`, the absorption maximum amounted to 403 nm (in C1CCOC1); 412 nm (in CC#N); 426 nm (in CC(=O)O); 408 nm (in CC(C)=O); 419 nm (in CCO); 416 nm (in CN(C)C=O). Besides, the absorption maximum is, setting by setting: (in CO) 421 nm; (in Cc1ccccc1) 404 nm; (in ClC(Cl)Cl) 417 nm; (in c1ccccc1) 406 nm.
On to `c1ccc(Cn2c3sccc3c3c4nsnc4c4c5ccsc5n(Cc5ccccc5)c4c32)cc1`, for which the absorption maximum was 424 nm (in Cc1ccccc1) and 424 nm (in ClCCl).
For the setting “in ClC(Cl)Cl”, `CCN(CC)c1ccc2cc(-c3ccc(-c4ccc5ccc6c(-c7ccc(-c8cc9ccc(N(CC)CC)cc9oc8=O)cc7)ccc7ccc4c5c76)cc3)c(=O)oc2c1` displayed an absorption maximum of 412 nm.
Molecule `O=C(O)c1cc(O)c(O)c(O)c1` returned an absorption maximum (in O) of 258 nm.
For the molecule `COc1cc2c(cc1-c1ccncc1)Cc1c3c(c4c(c1-2)-c1cc(OC)c(-c2ccncc2)cc1C4)C(=O)N(CCC(C)C)C3=O`, the absorption maximum (in C1CCOC1) is recorded as 407 nm.
`CC(C)(C)c1cc2c(c(C(C)(C)C)c1)O[B-]1(c3ccc([B-]45OC(c6ccccc6)=N[N+]4=Cc4cc(C(C)(C)C)cc(C(C)(C)C)c4O5)cc3)OC(c3ccccc3)=N[N+]1=C2` (centres undefined) yielded an absorption maximum (in C1CCOC1) of 455 nm.
In turn, `C[Si]1(C)O[Si](C)(C)c2cc3cc4cc5c(cc4cc3cc21)C(=O)c1cc2cc3cc4c(cc3cc2cc1C5=O)[Si](C)(C)O[Si]4(C)C` came in with an absorption maximum (in ClC(Cl)Cl) of 470 nm.
`CCOC(=O)c1cc(C(=O)O)nc2cc(OC)ccc12`: the absorption maximum (in CCO) was found to be 349 nm.
Take `C1=C(c2ccc(-c3cccs3)s2)CCC(c2ccccc2)C1` (centres undefined): the absorption maximum is, setting by setting: (in C1CCOC1) 342 nm; (in CC#N) 341 nm; (in CCCCCC) 341 nm; (in CCO) 341 nm; (in OCCOCCO) 346 nm; (in c1ccncc1) 347 nm.
With `CC(C)(C)c1ccc2oc(-c3ccc(-c4nc5cc(C(C)(C)C)ccc5o4)s3)nc2c1`, the absorption maximum reads like this: (in C1CCCCC1) 372 nm; (in C1CCOC1) 374 nm; (in CC1CCCCC1) 373 nm; (in CC#N) 371 nm; (in CCCCO) 375 nm; (in CCO) 373 nm. For the same molecule, the absorption maximum is 374 nm (in CN(C)C=O), 376 nm (in Cc1ccccc1), 379 nm (in Clc1ccccc1Cl) and 377 nm (in c1ccccc1).
As for `CCOc1cc2c(cc1/C=C/C1=CC(=C(C#N)C#N)CC(C)(C)C1)c1ccccc1n2CC`, the absorption maximum is reported as 476 nm (in C1CCOC1); 474 nm (in CC#N); 480 nm (in CCO); 469 nm (in CCOC(C)=O); 487 nm (in CN(C)C=O); 491 nm (in CS(C)=O). Besides, the absorption maximum reads like this: (in Cc1ccccc1) 474 nm; (in ClC(Cl)Cl) 480 nm; (in ClCCl) 479 nm.
Under “in ClCCl”, `O=P(c1ccccc1)(c1ccccc1)c1cccc(-c2nc3ccccc3n2-c2cccc(P(=O)(c3ccccc3)c3ccccc3)c2)c1` displayed an absorption maximum of 304 nm.
`CC1(C)c2ccccc2N(c2ccc(-c3nc(-c4ccccn4)n(-c4ccc(N5c6ccccc6C(C)(C)c6ccccc65)cc4)n3)cc2)c2ccccc21` had an absorption maximum (in ClCCl) of 375 nm.
Turning to `CCCC1(CCC)c2ccccc2-c2ccc(-c3ccc4c(c3)C(CCC)(CCC)c3cc(-c5ccc6c(c5)C(CCC)(CCC)c5cc(-c7ccc8c(c7)C(CCC)(CCC)c7ccccc7-8)ccc5-6)ccc3-4)cc21`, the absorption maximum (in C1CCCCC1) is on record as 360 nm.
In turn, `COc1ccc(C(=Cc2ccc(/C=C/c3ccc(C#N)cc3)cc2)c2ccc(OC)cc2)cc1` returned an absorption maximum (in C1CCOC1) of 379 nm.
In the case of `COc1c2ccccc2c(OC)c2c1c1ccc(F)cc1n2C`, the absorption maximum runs as follows: (in C1CCCCC1) 395 nm; (in CC#N) 398 nm; (in CO) 396 nm; (in ClCCl) 398 nm.
Regarding `CC[N+]1(CC)CN2C(=N1)C(C(=O)[O-])=Cc1ccccc12`, the absorption maximum stood at 378 nm (in CN(C)C=O) and 369 nm (in O).
As to `COc1ccc2cc3c(C)cc(=O)oc3cc2c1`, the absorption maximum reads like this: (in CC#N) 340 nm; (in CCCCCC) 337 nm; (in CCO) 343 nm; (in CCOC(C)=O) 340 nm; (in CO) 343 nm; (in OCC(F)(F)F) 344 nm.
As for `CCOC(CN1C(=O)C2=C(c3cccs3)N(CC(OCC)OCC)C(=O)C2=C1c1cccs1)OCC`, the absorption maximum (in ClC(Cl)Cl) came to 533 nm.
With `C#CCn1c2ccccc2c2cc(/C=C/c3cc(C)c4n3[B-](F)(F)[N+]3=C(C)C=C(C)C3=C4c3ccc(I)cc3)ccc21`, the absorption maximum reads like this: (in CC#N) 579 nm; (in CS(C)=O) 589 nm; (in ClC(Cl)Cl) 588 nm.
For `CCCCn1c2c(-c3ccc(N(c4ccccc4)c4ccccc4)cc3)cc(C#N)cc2c2cc(C#N)cc(-c3ccc(N(c4ccccc4)c4ccccc4)cc3)c21`, for the setting “in ClCCl”, the absorption maximum came out at 351 nm.
For the setting “in ClCCl”, `CN(C)c1ccc(/C=C/c2ccnc(/C=C/c3ccc(N(C)C)cc3)n2)cc1` came in with an absorption maximum of 385 nm.
`[NH3+]c1ccc2c(c1)Cc1ccccc1-2` showed an absorption maximum (in O) of 299 nm.
The molecule `C=Cc1ccc(OC)c(OC)c1` showed an absorption maximum (in C1CCCCC1) of 309 nm.
`Brc1cc2nc3cc4c5c(cccc5c3nc2cc1Br)C(c1ccccc1)=C(c1ccccc1)O4`: the absorption maximum (in ClCCl) came to 518 nm.
Under “in C1COCCO1”, `COC(=O)c1ccc(/C=C2\C=C(c3ccc(C#N)cc3)N(CC(C)C)C2=O)cc1` registered an absorption maximum of 438 nm.
In the case of `Cn1c(=O)c(/N=N/c2cc(S(=O)(=O)O)ccc2S(=O)(=O)O)c(O)c2ccccc21`, the absorption maximum by setting is: (in C1CCOC1) 428 nm; (in CC(C)=O) 421 nm; (in CCOC(C)=O) 423 nm; (in CO) 422 nm; (in CS(C)=O) 419 nm; (in Cc1ccccc1) 430 nm. The absorption maximum is 415 nm (in ClCCl) and 413 nm (in O).
In the case of `c1ccc(C2=C(c3ccccc3)c3cccc4c3c(cc3nc5cc(-c6ccccc6)c(-c6ccccc6)cc5nc34)O2)cc1`, the absorption maximum (in ClCCl) came out at 507 nm.
With `CCCCCCCCCCCCc1ccc(-c2cc(C)[o+]c(C)c2)cc1`, the absorption maximum is listed as 350 nm (in CC#N) and 370 nm (in ClCCl).
Take `CCCCCCOc1ccc(/C=C/c2ccc(N(c3ccc(/C=C/c4ccc(OCCCCCC)cc4)cc3)c3ccc(-c4nc5ccccc5nc4-c4ccc(N(c5ccc(/C=C/c6ccc(OCCCCCC)cc6)cc5)c5ccc(/C=C/c6ccc(OCCCCCC)cc6)cc5)cc4)cc3)cc2)cc1`: the absorption maximum reads like this: (in C1CCOC1) 378 nm; (in Cc1ccccc1) 374 nm.
As for `ClP1(Cl)=N[P@@](Cl)(Oc2ccc3ccc4cccc5ccc2c3c45)=N[P@@](Cl)(Oc2ccc3ccc4cccc5ccc2c3c45)=N1`, the absorption maximum (in ClCCl) was 343 nm.
`COc1ccc2oc(=N)c(C#N)cc2c1` registered an absorption maximum (in ClCCl) of 388 nm.
The molecule `O=c1oc2ccccc2cc1-c1cccc(-c2cc3ccccc3oc2=O)c1` registered an absorption maximum (in ClC(Cl)Cl) of 330 nm.
Same read-out and setting: under `N#CCc1ccccc1-c1cc2ccccc2oc1=O` stands 318 nm.
